Source: the supplement of paper PMC12513837
± gives the standard deviation of the averaged measurements.

Compound: CC(=O)N1CCc2c(c(N3CCCc4cc(-c5cnn(C)c5)c(C(F)F)cc43)nn2C2CCC(CN3CCN(c4ccc5c(c4)C(=O)N(C4CCC(=O)NC4=O)C5=O)CC3)CC2)C1 [CBPD-409]
Assay: AUC of viability dose-response curve (relative to vehicle, 8 doses up to 10 µM) (fraction); higher = less sensitive (more viable); extreme values may be limits of the assay
Experimental: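 PRISM multiplexed pooled barcoded cell line viability screen at the Broad Institute, 887 cancer cell lines treated with CBPD-409 (p300/CBP PROTAC degrader) at 8 concentrations in threefold dilution, top dose 10 µM. The read-out is the area under the dose-response curve of relative viability versus vehicle (n=3). AUC < 0.3 is called strongly sensitive and AUC > 0.8 resistant.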

| Test System | AUC of viability dose-response curve |
| --- | --- |
| HS683_CENTRAL_NERVOUS_SYSTEM | 1 |
| HS729_SOFT_TISSUE | 0.807 ± 0.27 |
| HS766T_PANCREAS | 0.73 |
| HS852T_SKIN | 1 |
| HS939T_SKIN | 0.815 |
| HS944T_SKIN | 1 |
| HSC1_SKIN | 1 |
| HSC2_UPPER_AERODIGESTIVE_TRACT | 0.502 |
| HSC3_UPPER_AERODIGESTIVE_TRACT | 0.936 |
| HSC5_SKIN | 0.644 |
| HSKTC_OVARY | 1 |
| HT3_CERVIX | 0.711 |
| HT29_LARGE_INTESTINE | 0.633 |
| HT55_LARGE_INTESTINE | 0.509 |
| HT115_LARGE_INTESTINE | 1 |
| HT144_SKIN | 1 |
| HT1080_SOFT_TISSUE | 1 |
| HT1197_URINARY_TRACT | 1 |
| HT1376_URINARY_TRACT | 1 |
| HTMMT_ENDOMETRIUM | 0.65 |
| HT_HAEMATOPOIETIC_AND_LYMPHOID_TISSUE | 0.672 |
| HUCCT1_BILIARY_TRACT | 0.983 |
| HUG1N_STOMACH | 1 |

| Test System | AUC of viability dose-response curve |
| --- | --- |
| HUH1_LIVER | 0.882 |
| HUH6_LIVER | 1 |
| HUH7_LIVER | 0.796 |
| HUO9_BONE | 0.679 |
| HUPT3_PANCREAS | 0.687 |
| HUPT4_PANCREAS | 0.784 |
| HUT78_HAEMATOPOIETIC_AND_LYMPHOID_TISSUE | 1 |
| IALM_LUNG | 0.311 |
| ICC4_BILIARY_TRACT | 0.706 |
| ICC8_BILIARY_TRACT | 1 |
| ICC9_BILIARY_TRACT | 1 |
| ICC10_BILIARY_TRACT | 0.827 |
| ICC12_BILIARY_TRACT | 1 |
| ICC15_BILIARY_TRACT | 0.265 |
| ICC137_BILIARY_TRACT | 0.501 |
| IGR1_SKIN | 0.626 |
| IGR37_SKIN | 0.229 |
| IGR39_SKIN | 0.847 |
| IGROV1_OVARY | 0.956 |
| IHH4_THYROID | 0.762 |
| IM95_STOMACH | 0.57 |
| IPC298_SKIN | 0.808 |
| ISHIKAWAHERAKLIO02ER_ENDOMETRIUM | 1 |

| Test System | AUC of viability dose-response curve |
| --- | --- |
| ISTMES1_PLEURA | 0.481 |
| ISTMES2_PLEURA | 0.579 |
| J82_URINARY_TRACT | 0.921 |
| JAR_PLACENTA | 0.238 |
| JEG3_PLACENTA | 0.307 |
| JEKO1_HAEMATOPOIETIC_AND_LYMPHOID_TISSUE | 1 |
| JHH1_LIVER | 0.282 |
| JHH4_LIVER | 0.997 |
| JHH5_LIVER | 0.614 |
| JHH7_LIVER | 0.291 |
| JHOC5_OVARY | 1 |
| JHOM1_OVARY | 0.99 |
| JHOS2_OVARY | 0.472 |
| JHUEM2_ENDOMETRIUM | 0.965 |
| JHUEM7_ENDOMETRIUM | 1 |
| JIMT1_BREAST | 1 |
| JJN3_HAEMATOPOIETIC_AND_LYMPHOID_TISSUE | 0.896 |
| JL1_PLEURA | 0.532 |
| JM1_HAEMATOPOIETIC_AND_LYMPHOID_TISSUE | 0.4 |
| JMSU1_URINARY_TRACT | 1 |
| JMURTK2_SOFT_TISSUE | 0.399 |
| JOPACA1_PANCREAS | 1 |
| JR_SOFT_TISSUE | 0.34 |

| Test System | AUC of viability dose-response curve |
| --- | --- |
| JURKAT_HAEMATOPOIETIC_AND_LYMPHOID_TISSUE | 0.66 |
| JURLMK1_HAEMATOPOIETIC_AND_LYMPHOID_TISSUE | 0.361 |
| JVM3_HAEMATOPOIETIC_AND_LYMPHOID_TISSUE | 1 |
| K029AX_SKIN | 0.793 |
| K562_HAEMATOPOIETIC_AND_LYMPHOID_TISSUE | 1 |
| KALS1_CENTRAL_NERVOUS_SYSTEM | 1 |
| KARPAS299_HAEMATOPOIETIC_AND_LYMPHOID_TISSUE | 1 |
| KARPAS422_HAEMATOPOIETIC_AND_LYMPHOID_TISSUE | 0.752 |
| KARPAS620_HAEMATOPOIETIC_AND_LYMPHOID_TISSUE | 0.449 |
| KARPAS1718_HAEMATOPOIETIC_AND_LYMPHOID_TISSUE | 0.585 |
| KATOIII_STOMACH | 0.581 |
| KCL22_HAEMATOPOIETIC_AND_LYMPHOID_TISSUE | 0.552 |
| KD_SOFT_TISSUE | 0.299 |
| KE37_HAEMATOPOIETIC_AND_LYMPHOID_TISSUE | 0.925 |
| KE39_STOMACH | 1 |
| KE97_STOMACH | 1 |
| KELLY_AUTONOMIC_GANGLIA | 0.234 ± 0.054 |
| KHM1B_HAEMATOPOIETIC_AND_LYMPHOID_TISSUE | 0.665 |
| KKU055_BILIARY_TRACT | 0.915 |
| KKU100_BILIARY_TRACT | 0.994 |
| KKU213_BILIARY_TRACT | 0.767 |
| KLE_ENDOMETRIUM | 0.91 |
| KMBC2_URINARY_TRACT | 0.841 |

| Test System | AUC of viability dose-response curve |
| --- | --- |
| KMCH1_BILIARY_TRACT | 0.96 |
| KMH2_HAEMATOPOIETIC_AND_LYMPHOID_TISSUE | 1 |
| KMRC1_KIDNEY | 1 |
| KMRC3_KIDNEY | 0.906 |
| KMRC20_KIDNEY | 0.738 |
| KMS11_HAEMATOPOIETIC_AND_LYMPHOID_TISSUE | 0.497 |
| KMS12BM_HAEMATOPOIETIC_AND_LYMPHOID_TISSUE | 0.28 |
| KMS18_HAEMATOPOIETIC_AND_LYMPHOID_TISSUE | 0.466 |
| KMS27_HAEMATOPOIETIC_AND_LYMPHOID_TISSUE | 0.801 |
| KMS28BM_HAEMATOPOIETIC_AND_LYMPHOID_TISSUE | 0.583 |
| KNS42_CENTRAL_NERVOUS_SYSTEM | 0.413 |
| KNS60_CENTRAL_NERVOUS_SYSTEM | 0.779 |
| KNS62_LUNG | 0.953 |
| KNS81_CENTRAL_NERVOUS_SYSTEM | 1 |
| KON_UPPER_AERODIGESTIVE_TRACT | 0.7 |
| KOPN8_HAEMATOPOIETIC_AND_LYMPHOID_TISSUE | 0.704 |
| KOSC2CL343_UPPER_AERODIGESTIVE_TRACT | 0.875 |
| KP2_PANCREAS | 0.512 |
| KP3_PANCREAS | 1 |
| KP4_PANCREAS | 0.625 |
| KS1_CENTRAL_NERVOUS_SYSTEM | 0.307 |
| KU1919_URINARY_TRACT | 0.267 |
| KURAMOCHI_OVARY | 0.967 |

| Test System | AUC of viability dose-response curve |
| --- | --- |
| KYM1_SOFT_TISSUE | 0.446 |
| KYO1_HAEMATOPOIETIC_AND_LYMPHOID_TISSUE | 0.628 |
| KYSE30_OESOPHAGUS | 0.619 |
| KYSE70_OESOPHAGUS | 1 |
| KYSE140_OESOPHAGUS | 1 |
| KYSE150_OESOPHAGUS | 0.834 |
| KYSE180_OESOPHAGUS | 0.929 |
| KYSE270_OESOPHAGUS | 0.722 |
| KYSE410_OESOPHAGUS | 0.901 |
| KYSE450_OESOPHAGUS | 0.761 |
| KYSE510_OESOPHAGUS | 0.928 |
| KYSE520_OESOPHAGUS | 0.797 |
| L33_PANCREAS | 0.692 |
| L82_HAEMATOPOIETIC_AND_LYMPHOID_TISSUE | 0.44 |
| LAMA84_HAEMATOPOIETIC_AND_LYMPHOID_TISSUE | 0.832 |
| LC1SQSF_LUNG | 0.991 |
| LCLC103H_LUNG | 1 |
| LI7_LIVER | 1 |
| LK2_LUNG | 0.178 |
| LMSU_STOMACH | 0.672 |
| LN18_CENTRAL_NERVOUS_SYSTEM | 0.607 |
| LN229_CENTRAL_NERVOUS_SYSTEM | 1 |
| LN382_CENTRAL_NERVOUS_SYSTEM | 1 |
